Starred links: 1 amine or outer side, 2 acyl side, 3 side chain; linkers in the order of their positions; H or OH if unused. Positions of bridges follow the written chain, without caps; N, C: chain ends. Non-standard residues stand in square brackets, D forms with d. Residues, ends and D or L forms follow the SMILES beside them. γGlu = O=C(O)[C@H](CCC(=O)[*:2])N[*:1]; NMeL = CN[C@@H](CC(C)C)C(=O)O; Ahp(2) = CCCCC[C@H](N)C(=O)O; NMeNle = CCCC[C@H](NC)C(=O)O; Tle = CC(C)(C)[C@H](N)C(=O)O; NMeS = CN[C@@H](CO)C(=O)O; NHexGly = CCCCCCNCC(=O)O; Aun = NCCCCCCCCCCC(=O)O; AEEA = NCCOCCOCC(=O)O
Biological target: T1, mouse VISTA (mVISTA) (Mus musculus, UniProt Q9D659)
T1 construct: expressed in transfected cells; host or cells: Human embryonic kidney 293T cells
T1 sequence (Q9D659 33-308): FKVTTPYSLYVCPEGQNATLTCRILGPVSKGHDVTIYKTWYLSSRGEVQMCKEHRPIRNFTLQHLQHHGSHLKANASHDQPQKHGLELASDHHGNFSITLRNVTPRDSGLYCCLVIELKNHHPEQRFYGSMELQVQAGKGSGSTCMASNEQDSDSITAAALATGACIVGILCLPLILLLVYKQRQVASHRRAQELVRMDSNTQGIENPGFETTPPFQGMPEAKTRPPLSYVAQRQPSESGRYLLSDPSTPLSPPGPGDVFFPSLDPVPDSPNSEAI
Assay: Cell-Based Binding High-Content Assay For mVISTA (HC CBA mVISTA)
Details: read-out: HC CBA mVISTA IC50
Method in brief: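 mVISTA-293T, 4,000 cells/well; cpd ± washout step; biotin-peptide 2 nM final, 30 min RT; SA-Alexa 647 30 min; formaldehyde/Hoechst fix; HCS imaging; 4PL IC50.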

SMILES	IC50 [nM]
CCCCCCN1CC(=O)N[C@@H](Cc2ccc(O)cc2)C(=O)N[C@@H](CC(C)C)C(=O)N[C@@H](CC(N)=O)C(=O)N[C@@H](CCCNC(=N)N)C(=O)N(C)[C@@H](CO)C(=O)N[C@@H](CCCCC)C(=O)N2CCC[C@H]2C(=O)N[C@@H](C(C)(C)C)C(=O)N[C@@H](CO)C(=O)N[C@H](C(=O)NCCOCCOCC(=O)N[C@@H](CCC(=O)NCCOCCOCC(=O)NCCCCCCCCCCC(=O)O)C(=O)O)CSCC(=O)N[C@@H](Cc2ccccc2)C(=O)N[C@@H](Cc2ccc(O)cc2)C(=O)N[C@@H](CC(=O)O)C1=O [compound 2262] ({CH2CO}-FYD[NHexGly]YLNR[NMeS][Ahp(2)]P[Tle]SC[AEEA][γGlu][AEEA][Aun]-OH; thioether N-14)	39.8
CCCCCCN1CC(=O)N[C@@H](Cc2ccc(O)cc2)C(=O)N[C@@H](CC(C)C)C(=O)N[C@@H](CC(N)=O)C(=O)N[C@@H](CCCNC(=N)N)C(=O)N(C)[C@@H](CC(C)C)C(=O)N[C@@H](CCCCC)C(=O)N2CCC[C@H]2C(=O)N[C@@H](C(C)(C)C)C(=O)N[C@@H](CO)C(=O)N[C@H](C(=O)NCCOCCOCC(=O)N[C@@H](CCC(=O)NCCOCCOCC(=O)NCCCCCCCCCCC(=O)O)C(=O)O)CSCC(=O)N[C@@H](Cc2ccccc2)C(=O)N[C@@H](Cc2c[nH]c3ccccc23)C(=O)N[C@@H](CC(=O)O)C1=O [compound 2263] ({CH2CO}-FWD[NHexGly]YLNR[NMeL][Ahp(2)]P[Tle]SC[AEEA][γGlu][AEEA][Aun]-OH; thioether N-14)	25.1
CCCCCCN1CC(=O)N[C@@H](Cc2ccc(O)cc2)C(=O)N[C@@H](CC(C)C)C(=O)N[C@@H](CC(N)=O)C(=O)N[C@@H](CCCNC(=N)N)C(=O)N(C)[C@@H](CO)C(=O)N[C@@H](CCCCC)C(=O)N2CCC[C@H]2C(=O)N[C@@H](C(C)(C)C)C(=O)N[C@@H](CC(=O)O)C(=O)N[C@H](C(=O)NCCOCCOCC(=O)N[C@@H](CCC(=O)NCCOCCOCC(=O)NCCCCCCCCCCC(=O)O)C(=O)O)CSCC(=O)N[C@@H](Cc2ccccc2)C(=O)N[C@@H](Cc2c[nH]c3ccccc23)C(=O)N[C@@H](CC(=O)O)C1=O [compound 2264] ({CH2CO}-FWD[NHexGly]YLNR[NMeS][Ahp(2)]P[Tle]DC[AEEA][γGlu][AEEA][Aun]-OH; thioether N-14)	24.7
CCCCCCN1CC(=O)N[C@@H](Cc2ccc(O)cc2)C(=O)N[C@@H](CC(C)C)C(=O)N[C@@H](CC(N)=O)C(=O)N[C@@H](CCCNC(=N)N)C(=O)N(C)[C@@H](CCCC)C(=O)N[C@@H](CCCCC)C(=O)N2CCC[C@H]2C(=O)N[C@@H](C(C)(C)C)C(=O)N[C@@H](CC(=O)O)C(=O)N[C@H](C(=O)NCCOCCOCC(=O)N[C@@H](CCC(=O)NCCOCCOCC(=O)NCCCCCCCCCCC(=O)O)C(=O)O)CSCC(=O)N[C@@H](Cc2ccccc2)C(=O)N[C@@H](Cc2c[nH]c3ccccc23)C(=O)N[C@@H](CC(=O)O)C1=O [compound 2265] ({CH2CO}-FWD[NHexGly]YLNR[NMeNle][Ahp(2)]P[Tle]DC[AEEA][γGlu][AEEA][Aun]-OH; thioether N-14)	17.8
CCCCCCN1CC(=O)N[C@@H](Cc2ccc(O)cc2)C(=O)N[C@@H](CC(C)C)C(=O)N[C@@H](CC(N)=O)C(=O)N[C@@H](CCCNC(=N)N)C(=O)N(C)[C@@H](CO)C(=O)N[C@@H](CCCCC)C(=O)N2CCC[C@H]2C(=O)N[C@@H](C(C)(C)C)C(=O)N[C@@H](CO)C(=O)N[C@H](C(=O)NCCOCCOCC(=O)N[C@@H](CCC(=O)NCCOCCOCC(=O)NCCCCCCCCCCC(=O)O)C(=O)O)CSCC(=O)N[C@@H](Cc2ccccc2)C(=O)N[C@@H](Cc2c[nH]c3ccccc23)C(=O)N[C@@H](CC(=O)O)C1=O [compound 2266] ({CH2CO}-FWD[NHexGly]YLNR[NMeS][Ahp(2)]P[Tle]SC[AEEA][γGlu][AEEA][Aun]-OH; thioether N-14)	37.9

Source: US20240218022A1, “ANTI-VISTA MACROCYCLIC PEPTIDES AND COMPOSITIONS” (BRISTOL-MYERS SQUIBB COMPANY, priority 2022, published 2024)
